In the CheMixHub viscosity set:

Assay: xn = mol fraction of the nth substance listed

O=C1CCCCC1 + C1COCCO1
viscosity [mPa·s], 101 kPa
Conditions | x1 = 0.099 | x1 = 0.2022 | x1 = 0.31 | x1 = 0.4227 | x1 = 0.5406 | x1 = 0.6641 | x1 = 0.728 | x1 = 0.8607 | x1 = 0.9295
293.15 K | 1.323 | 1.352 | 1.396 | 1.463 | 1.56 | 1.694 | 1.782 | 2.003 | 2.148
298.15 K | 1.214 | 1.239 | 1.281 | 1.341 | 1.429 | 1.544 | 1.626 | 1.816 | 1.941
303.15 K | 1.12 | 1.142 | 1.184 | 1.235 | 1.324 | 1.417 | 1.489 | 1.657 | 1.769
308.15 K | 1.036 | 1.06 | 1.094 | 1.145 | 1.224 | 1.315 | 1.373 | 1.513 | 1.618
313.15 K | 0.9598 | 0.9803 | 1.017 | 1.063 | 1.143 | 1.212 | 1.263 | 1.39 | 1.497

CC(C)CC(C)(C)C + CCCCCCC
101 kPa
Conditions | viscosity [mPa·s]
293.15 K, x1 = 0.6 | 0.454
293.15 K, x1 = 0.8 | 0.473
298.15 K, x1 = 0.1802 | 0.4055
298.15 K, x1 = 0.2943 | 0.4133
298.15 K, x1 = 0.3739 | 0.4193
298.15 K, x1 = 0.4883 | 0.4269
298.15 K, x1 = 0.5806 | 0.4357
298.15 K, x1 = 0.6254 | 0.4399
298.15 K, x1 = 0.7244 | 0.4491
298.15 K, x1 = 0.799 | 0.4562
298.15 K, x1 = 0.8649 | 0.461
298.15 K, x1 = 0.9217 | 0.4665
298.15 K, x1 = 0.9641 | 0.4743
313.15 K, x1 = 0.2 | 0.343
313.15 K, x1 = 0.4 | 0.354
313.15 K, x1 = 0.6 | 0.366
313.15 K, x1 = 0.8 | 0.38

O=C1CCCCC1 + CCCO
303.15 K, 101 kPa
Conditions | viscosity [mPa·s]
x1 = 0.1012 | 1.452
x1 = 0.2601 | 1.283
x1 = 0.4199 | 1.243
x1 = 0.5794 | 1.3
x1 = 0.7393 | 1.392
x1 = 0.8997 | 1.576

CCCCCCO + Cc1ccccc1
viscosity [mPa·s], 101 kPa
Conditions | x2 = 0.1151 | x2 = 0.2265 | x2 = 0.3342 | x2 = 0.4384 | x2 = 0.5394 | x2 = 0.6372 | x2 = 0.7321 | x2 = 0.8241 | x2 = 0.9133
303.15 K | 2.859 | 2.167 | 1.692 | 1.351 | 1.099 | 0.882 | 0.7364 | 0.6235 | 0.5592
313.15 K | 2.206 | 1.701 | 1.341 | 1.097 | 0.9164 | 0.7593 | 0.6439 | 0.5569 | 0.5069
323.15 K | 1.661 | 1.321 | 1.057 | 0.8845 | 0.7532 | 0.6516 | 0.5418 | 0.4674 | 0.4336

O=[PH2][O-].O=[PH2][O-].[Mn+2] + O
Conditions | viscosity [mPa·s]
298.15 K, 101.33 kPa, x1 = 0.0137 | 1.68
